Test results taken from patent publication US4071680A, “5'-Deoxy-5-fluoropyrimidine nucleosides” (Hoffmann-La Roche Inc., priority 1976, dated 1978).
Like-named read-outs stand apart in the source and are kept apart here.

Tests used:
[1] = system: Ehrlich Carcinoma; assay type: in vivo, albino mice
Protocol: (§1) All compounds were dissolved in water for administration to animals.
(§2) Small pieces of tumor (20-30mg) were implanted subcutaneously by trocar into the right inguinal region of 18-20 g albino mice. The fragments were obtained from donors bearing firm subcutaneous tumors implanted 7-10 days previously. Treatment was begun on the day of implantation and continued once daily for a total of 8 treatments. The animals were sacrificed 8 days after implantation and the tumors excised and weighed. The ratio of the average weight of the tumors from the untreated control group (C) divided by the average weight of the tumors from the treated group (T) was calculated. The percent inhibition of tumor growth was calculated from the formula:
(§3) % Inhibition = 100 (C-T)/C . The compound was considered to be active at a particular dose if % inhibition ≥ 50%.
The solid form of this tumor was produced by subcutaneous implantation of 0.5 ml of a 1-10 saline - diluted ascitic tumor cell suspensions derived from 18-20 g albino donor mice implanted 7-10 days previously. Treatment and evaluation procedures were identical to those used for Sarcoma 180.
(§4) Results obtained from experiments, utilizing compounds of the present invention and representative prior art compounds are summarized below in Table 1.
Effect of pyrimidine Nucleosides Against Ehrlich Carcinoma in Mice

[2] = system: Sarcoma 180 Tumor; assay type: in vivo, albino mice
Protocol: as §1, §2, §3, §4
Effect of Pyrimidine Nucleosides Against Sarcoma 180 Tumor in Mice
(active doses are those which produce ≥50% tumor inhibition)

[3] = system: Yoshida sarcoma; conditions: Japanese Pat. No. 51-086481; cited from earlier work
[4] = system: L1210 leukemia cell cultures; conditions: Falco and Fox, J. Med. Chem. 11, 148 (1968); cited from earlier work
[5] = system: Burkitt's cell cultures; conditions: Falco and Fox, J. Med. Chem. 11, 148 (1968); cited from earlier work

Row | Structure (SMILES) | Percent Inhibition of tumor growth ([1]; 25 mg/kg × 8, ip) | Percent Inhibition of tumor growth ([1]; 25 mg/kg × 8, po) | Percent Inhibition of tumor growth ([1]; 50 mg/kg × 8, ip) | Percent Inhibition of tumor growth ([1]; 50 mg/kg × 8, po) | Percent Inhibition of tumor growth ([1]; 100 mg/kg × 8, ip) | Percent Inhibition of tumor growth ([1]; 100 mg/kg × 8, po) | Percent Inhibition of tumor growth ([1]; 200 mg/kg × 8, ip) | Percent Inhibition of tumor growth ([1]; 200 mg/kg × 8, po) | Percent Inhibition of tumor growth ([1]; 400 mg/kg × 8, ip) | Percent Inhibition of tumor growth ([1]; 400 mg/kg × 8, po) | Percent Inhibition of tumor growth ([1]; 800 mg/kg × 8, po) | Percent Inhibition of tumor growth ([2]; 6.25 mg/kg × 8, po) | Percent Inhibition of tumor growth ([2]; 12.5 mg/kg × 8, ip) | Percent Inhibition of tumor growth ([2]; 12.5 mg/kg × 8, po) | Percent Inhibition of tumor growth ([2]; 25 mg/kg × 8, ip) | Percent Inhibition of tumor growth ([2]; 25 mg/kg × 8, po) | Percent Inhibition of tumor growth ([2]; 50 mg/kg × 8, ip) | Percent Inhibition of tumor growth ([2]; 100 mg/kg × 8, ip) | Percent Inhibition of tumor growth ([2]; 200 mg/kg × 8, ip) | Percent Inhibition of tumor growth ([2]; 200 mg/kg × 8, po) | further results
1 | C[C@H]1O[C@@H](n2cc(F)c(N)nc2=O)[C@H](O)[C@@H]1O [5'-Deoxy-5-Fluorocytidine] | 45% | 37% | 57% | 58% | 65% | 71% | 72% | 80% | 91% | 95% | 99% | 26% | 37% | 62% | 64% | 76% | 72% | 86% | 93% | 82% | Percent Inhibition of tumor growth ([2]; 50 mg/kg × 8, po): 65%; Percent Inhibition of tumor growth ([2]; 100 mg/kg × 8, po): 76%; Percent Inhibition of tumor growth ([2]; 400 mg/kg × 8, ip): 95%; Percent Inhibition of tumor growth ([2]; 400 mg/kg × 8, po): 92%
2 | C[C@H]1O[C@@H](n2cc(F)c(=O)[nH]c2=O)[C@H](O)[C@@H]1O [5'-Deoxy-5-Fluorouridine] | 43% | 27% | 59% | 56% | 71% | 70% | 86% | 90% | 98% | 98% | 99% | 68% | 43% | 73% | 67% | 75% | 89% | 88% | 88% | 90% | Percent Inhibition of tumor growth ([2]; 1.56 mg/kg × 8, po): 30%; Percent Inhibition of tumor growth ([2]; 3.12 mg/kg × 8, po): 51%; Percent Inhibition of tumor growth ([2]; 50 mg/kg × 8, po): 80%; Percent Inhibition of tumor growth ([2]; 100 mg/kg × 8, po): 83%; Percent Inhibition of tumor growth ([2]; 400 mg/kg × 8, po): 90%
3 | C[C@H]1O[C@@H](n2cc(F)c(=O)[nH]c2=O)C[C@@H]1O [2',5'-Dideoxy-5-Fluorouridine, reference compound] |  |  |  |  |  |  |  |  |  |  |  |  |  |  |  |  |  | 37% | 68% | 34% | inhibition of growth of Yoshida sarcoma [3]: inhibiting the growth of Yoshida sarcoma; Percent Inhibition of tumor growth ([2]; 400 mg/kg × 8, ip): 81%
4 | C[C@H]1O[C@@H](n2ccc(N)nc2=O)[C@@H](O)[C@@H]1O [1-(5'-deoxy-β-D-arabinofuranosyl) cytosine] |  |  |  |  |  |  |  |  |  |  |  |  |  |  |  |  |  |  |  |  | activity against L1210 leukemia cell cultures [4]: inactive; activity against Burkitt's cell cultures [5]: inactive
5 | C[C@H]1O[C@@H](n2ccc(=O)[nH]c2=O)[C@H](O)[C@@H]1O [5'-Deoxyuridine, reference compound] |  |  |  |  |  |  |  |  |  |  |  |  |  |  |  |  |  | 41% | 9% |  | 
